Assays:
[1] = system: BRCA1, BRCA2, ATR, ERCC4 mRNA; experiment: RT-qPCR of BRCA1, BRCA2, ATR and ERCC4 mRNAs; assay type: cell-based, Homo sapiens
Protocol: Total RNA was extracted from HQ461-treated A549 cells using TRNzol (Tiangen, Beijing, China). Reverse transcription of mRNA into cDNA was performed using the 5X All-In-One RT mastermix kit with AccuRT genomic DNA removal kit (Abm, Richmond, Canada), and qPCR was performed using TB Green Premix Ex Taq (Tli RNaseH Plus) (Takara, Otsu, Japan) with the CFX96 Real-Time PCR Detection System (Bio-Rad, Hercules, USA). GAPDH was used for normalization. Primer sequences are as follows: GAPDH-forward: 5’-[…]-3’; GAPDH-reverse: 5’-[…]-3’; BRCA1-forward: 5’-[…]-3’; BRCA1-reverse: 5’-[…]-3’; BRCA2-forward: 5’-[…]-3’; BRCA2-reverse: 5’-[…]-3’; ATR-forward: 5’-[…]-3’; ATR-reverse: 5’-[…]-3’; ERCC4-forward: 5’-[…]-3’; ERCC4- reverse: 5’-[…]-3’. Each experiment was performed with three technical replicates.

[2] = system: ARE-luc2P activity (NRF2); experiment: ARE-luc2P reporter assay (NRF2 activity); assay type: cell-based; settings: Homo sapiens; A549 ARE-luc2P reporter cells
Protocol: A549 cells were transiently transfected with the plasmid pGL4.37 (Promega, Madison, USA) and selected with 500 µg/ml of hygromycin to obtain a stable cell line harboring the ARE-luc2P reporter. TK-luc2P was cloned into the pLVX-IRE-Puro backbone by replacing its CMV promoter and multiple cloning site with HSV-TK promoter fused to luc2P. The resulting pLVX-TK-luc2P-IRES-Puro plasmid was packaged into lentivirus to transduce A549 cells. Stable cell lines were obtained by selection of transduced cells with 2 µg/ml of puromycin.
A screening library with 65,790 small molecules (Life Chemicals, Niagara-on-the-Lake, Canada) were used in primary screening. The screening procedures were as follows. Seven hundred A549 ARE-luc2P cells in 50 µL of medium were plated per well in 384-well flat clear bottom white polystyrene TC-treated microplates (Corning, Corning, USA) and allowed to attach to plates overnight. […] Twelve hours later, ARE-luc2P activities were measured with Bright-Glo luciferase assay system (Promega, Madison, USA) following vendor instructions. Luminescence was measured on a EnVision multimode plate reader (PerkinElmer, Waltham, USA). Luminescence data on each plate was Z-score normalized using the equation Z=x−μ/σ , where x is the luminescence value of a well, µ is the mean and σ is the standard deviation of all values on one plate. […]

CCNK = experiment: Western blotting of CCNK protein level in A549 cells; assay type: cell-based, Homo sapiens
Protocol: Standard SDS-PAGE and western blotting procedures were used with the following modifications. For preparation of total lysates, cells were rinsed with DPBS to remove residual medium and then lysed in 20 mM HEPES-NaOH, pH 8.0, 10 mM NaCl, 2 mM MgCl2, 1% SDS freshly supplemented with 0.5 units/µL of benzonase and 1x cOmplete, Mini, EDTA-free protease inhibitor cocktail (Roche, Bazel, Switzerland). Protein concentrations of the resulting lysates were quantified by the BCA method. Between 30 to 60 µg of proteins were resolved on SDS-PAGE and transferred to nitrocellulose membranes with a pore size of 0.5 μm. Membranes were blocked in 5% nonfat milk PBST (0.1% v/v Tween-20) for 30 min before blotting with antibodies. The following primary antibodies were used by dilution in 5% nonfat milk PBST: anti-NRF2 (Abcam, Cambridge, UK, ab62352, 1:4,000), anti-β-Actin-HRP (Huaxingbio, Beijing, China, HX18271,1:10,000), anti-α-Tubulin-HRFP (MBL Life Science, Japan, PM054-7, 1:10,000), anti-DDB1 (Abcam, Cambridge, UK, ab109027, 1:10,000), anti-RBX1 (Proteintech, Wuhan, China, 14895–1-AP, 1:5,000), anti-UBE2G1 (Proteintech, Wuhuan, China, 12012–1-AP, 1:2,000), anti-CDK12 (Cell Signaling Technology, Danvers, USA, 11973S,1:4,000), anti-CCNK (Bethyl lab, Montgomery, USA, A301-939A-T,1:4,000), anti-FLAG-HRP (Sigma-Aldrich, MO, USA, A8592, 1:10,000), anti-HA (BioLegend, San Diego, USA, 901533, 1:4,000), anti-RNA polymerase II subunit B1 (phospho CTD Ser-2) clone 3E10 (Sigma-Aldrich, MO, USA, 04–1571, 1:5,000), and anti-RNA polymerase II CTD repeat YSPTSPS antibody clone 8WG16 (Abcam, Cambridge, UK, ab817, 1:5,000). The following HRP-linked secondary antibodies were used by dilution in PBST: anti-rabbit IgG (Cell Signaling Technology, Danvers, USA, 7074S, 1:10,000), anti-mouse IgG (Zsbio, Beijing, China, ZB-2305, 1:10,000), and anti-rat IgG, (Sino Biological, Beijing, China, SSA005, 1:10,000). M5 HiPer ECL Western HRP Substrate (Mei5bio, Beijing, China, MF074-01) was used for the detection of HRP enzymatic activity. Western blot images were taken with a VILBER FUSION FX7 imager.

Question: Which “inhibitory effect on the expression of DDR genes” value ([1]; A549 with CDK12 G731E or G731R mutation) does the source give for `Cc1cccc(Nc2nc(CC(=O)Nc3ncc(C)s3)cs2)n1` [HQ461, 2-(2-((6-methylpyridin-2-yl)amino)thiazol-4-yl)-N-(5-methylthiazol-2-yl)acetamide] here?
Answer: abolished

Question: What about the “mRNA levels of BRCA1, BRCA2, ATR and ERCC4” value ([1]; parental A549, 10 µM HQ461 for 16 hr) of the same compound?
Answer: reductions in the mRNA levels of all four tested DDR genes

Question: And the IC50 [2]?
Answer: 3.6 µM

Question: What about the “reduction of the CCNK protein level” value (CCNK; A549, 4 hr treatment) of the same compound?
Answer: > 8 fold

Question: What about the “CCNK protein level in cells with CDK12 G731E or G731R mutation” value (CCNK; A549 CDK12 G731E/G731R cells) of the same compound?
Answer: not affected

Source: article PMC7462607 (eLife, 2020)
